{
  "source": "patent US20090209541A1",
  "about": "“APREPITANT COMPOSITIONS” (Dr. Reddy's Laboratories Ltd., priority 2006, published 2009)",
  "key": {"[1]": {"test": "Solubility of powder compositions of aprepitant at 25° C. in water (HPLC method)", "type": "physicochemical", "conditions": "thermodynamic from solid", "procedure": "Solubility of Powder Compositions of Aprepitant at 25° C. in Water\n• A. Aprepitant: Neat aprepitant was passed through a BSS # 80 mesh sieve, and its solubility in water was determined using a HPLC method. • B. Aprepitant: PVP K30 (1:1 w/w) solid dispersion: 2 g aprepitant and 2 g PVP K 30 were dissolved in a mixture of 200 ml dichloromethane and 20 ml methanol. This solution was dried in a rotary flash evaporator at 50° C. The dried solid dispersion was passed through a BSS # 80 mesh sieve. • C. Premix of A and B (1:6 w/w): Neat aprepitant and solid dispersion from B was mixed in the weight proportions of 1:6. This mixture was passed through a BSS # 80 mesh sieve. • D. Premix of A and B (1:2 w/w): Neat aprepitant and solid dispersion from B was mixed in the weight proportions of 1:2. This mixture was passed through a BSS # 80 mesh sieve. • E. Premix of A and B (3:2 w/w): Neat aprepitant and solid dispersion from B was mixed in the weight proportions of 3:2. This mixture was passed through a BSS # 80 mesh sieve. • F. Aprepitant: Polysorbate 80 (1:1 w/w): 1 g aprepitant and 1 g polysorbate 80 were mixed together by trituration. […]\nInjected blank once, standard solution, all sample preparations in different pH solutions each twice into the chromatographic system. Aprepitant solubility in mg/ml was calculated using following formula: […]"}, "[2]": {"conditions": "cited from earlier work"}, "[3]": {"conditions": "cited from earlier work", "remark": "listed apart in the source"}, "[4]": {"conditions": "U.S. Pat. Nos. 6,096,742 and 6,583,142; cited from earlier work"}},
  "data": [
    {"smiles": "C[C@@H](O[C@H]1OCCN(Cc2n[nH]c(=O)[nH]2)[C@H]1c1ccc(F)cc1)c1cc(C(F)(F)F)cc(C(F)(F)F)c1", "note": "[A, Aprepitant]", "values": [
      {"measurement": "solubility", "setting": "[1]", "result": 0.5, "unit": "µg/mL"}
    ]},
    {"smiles": "C[C@@H](O[C@H]1OCCN(Cc2n[nH]c(=O)[nH]2)[C@H]1c1ccc(F)cc1)c1cc(C(F)(F)F)cc(C(F)(F)F)c1", "note": "[Aprepitant, 5-[[(2R,3S)-2-[(1R)-1-[3,5-bis(trifluoromethyl)phenyl]ethoxy]-3-(4-fluorophenyl)-4-morpholinyl]methyl]-1,2-dihydro-3H-1,2,4-triazol-3-one]", "values": [
      {"measurement": "permeability characteristics", "setting": "[2]", "result": "poor permeability"},
      {"measurement": "solubility in acetonitrile (descriptive)", "setting": "[3]; acetonitrile", "result": "slightly soluble"},
      {"measurement": "solubility in ethanol (descriptive)", "setting": "[3]; ethanol", "result": "sparingly soluble"},
      {"measurement": "solubility in isopropyl acetate (descriptive)", "setting": "[3]; isopropyl acetate", "result": "sparingly soluble"},
      {"measurement": "solubility in water (descriptive)", "setting": "[3]; water", "result": "practically insoluble"}
    ]},
    {"smiles": "C[C@@H](O[C@H]1OCCN(Cc2n[nH]c(=O)[nH]2)[C@H]1c1ccc(F)cc1)c1cc(C(F)(F)F)cc(C(F)(F)F)c1", "note": "[Form I, aprepitant]", "values": [
      {"measurement": "solubility relative to Form II", "setting": "[4]", "result": "lower solubility as compared to Form II"},
      {"measurement": "thermodynamic stability relative to Form II", "setting": "[4]", "result": "thermodynamically more stable than Form II"}
    ]}
  ]
}
